Patent publication US11337963B2, “Compositions and methods of enhancing 5-hydroxytryptophan bioavailability” (Duke University, priority 2018, dated 2022)
Read-outs that look alike come from different tables or passages of the source.

Experiments:
[1] = Plasma 5-HTP levels in mice given 5-HTP and/or carbidopa via food for 14 days; format: in vivo; details: for augmentation of the 5-HTP plasma elevation induced by 5-HTP: carbidopa 2, 5 or 10 mg/kg/day added to 5-HTP 200 mg/kg/day, similar in WT and 5-HTHypo mice
Source text: (§1) Mice: Adult mice were used, both wildtype (WT) mice with normal 5-HT levels and ‘5-HTHypo’ mice with reduced brain 5-HT synthesis and levels (Beaulieu et al, 2008). The 5-HTHypo mice are a naturalistic model of brain 5-HT deficiency, which is known to be a pathogenic factor in several CNS disorders, e.g. depression and suicide.
(§2) Drug treatments: Carbidopa was used as a PDI. To model oral drug delivery occurring in humans during a therapeutic scenario, 5-HTP and carbidopa was delivered via the mouse food (standard chow). This approach distributed the drug delivery over time, imparting a measure of ‘slow-release’ (aka sustained-, extended-, time-, controlled-release) delivery. 5-HTP was administered in a dose of 200 mg/kg/day. Carbidopa was administered in doses of 2, 5 or 10 mg/kg/day in addition to 5-HTP, to assess the effect of carbidopa on the outcomes of 5-HTP treatment. To assess the effect of carbidopa alone, groups of mice were also administered carbidopa 10 mg/kg/day, the highest carbidopa dose, without concomitant 5-HTP. Comparisons were made to untreated mice. Duration of all treatments was 14 days, which is considered chronic in mouse experiments.
(§3) Sample collection: During treatments blood samples were collected to assess plasma levels of 5-HTP and carbidopa. At end of treatments mice were euthanized and brain tissues (frontal cortex) were collected.
(§4) Quantitative analysis: Levels of plasma 5-HTP, plasma carbidopa, brain 5-HT, and brain 5-hydroxyindoleacetic acid (5-HIAA, major 5-HT metabolite) were quantified using HPLC, as described (Jacobsen et al, 2012b). The limits of detection for 5-HT and 5-HTP in plasma were 1 ng/ml and for carbidopa in plasma 2 ng/ml (FIG. 4C).

brain 5-HT = assay: Brain (frontal cortex) 5-HT tissue levels in mice after 14 days of treatment; format: in vivo; details: for augmentation of the brain 5-HT tissue elevation induced by 5-HTP: carbidopa 2, 5 or 10 mg/kg/day added to 5-HTP 200 mg/kg/day, more pronounced in 5-HTHypo mice
Source text: as §1, §2, §3, §4

brain 5-HIAA = assay: Brain (frontal cortex) 5-HIAA tissue levels in mice after 14 days of treatment; format: in vivo; details: for augmentation of the brain 5-HIAA tissue elevation induced by 5-HTP: carbidopa 2, 5 or 10 mg/kg/day added to 5-HTP 200 mg/kg/day, more pronounced in 5-HTHypo mice
Source text: as §1, §2, §3, §4

[2] = animal studies (Shindo et al, 1977); cited from earlier work
[3] = cited from earlier work
[4] = animals; including kidney insufficiency and growth anomalies; cited from earlier work
[5] = test system: aromatic amino acid decarboxylase enzyme (AAAD); details: after oral administration (Da Prada et al, 1987); cited from earlier work
[6] = Carbidopa plasma levels in humans at therapeutic doses (literature); format: in vivo; details: reported human chronic studies with carbidopa and 5-HTP; extrapolated across references
[7] = HPLC electrochemical quantification of carbidopa in mouse plasma; format: in vivo, mice
Protocol: FIG. 4A-4D. HPLC electrochemical quantification of carbidopa in plasma. FIG. 4A: 10 ng/ml standard in perchloric acid. Carbidopa peak visible at 24 min. FIG. 4B: Plasma extract from mouse not treated with carbidopa. […] Baseline undulations at 24 min is detector noise. FIG. 4C: Plasma extract from a mouse not treated with carbidopa, but the plasma spiked with carbidopa to a concentration of 2 ng/ml prior to extraction. Carbidopa peak visible at 24 min. FIG. 4D: Plasma extract from mouse treated with 10 mg/kg/day carbidopa. […] Baseline undulations at 24 min is detector noise, as indicated.
as §2, §3, §4

[8] = cited from earlier work; remark: listed apart in the source
[9] = 5-HTP 200 mg/kg/day alone via food, 14 days, vs untreated
[10] = carbidopa 10 mg/kg/day alone, without 5-HTP, 14 days
[11] = steady state, therapeutic scenario

For `N[C@@H](Cc1c[nH]c2ccc(O)cc12)C(=O)O` [5-HTP, 5-hydroxytryptophan], the “levels of plasma 5-HTP” value ([1]; 5-HTP 200 mg/kg/day alone via food, 14 days, vs untreated, WT and 5-HTHypo mice) was “elevated”, the “levels of brain 5-HT” value (brain 5-HT; [9]) was “elevated” and the “levels of brain 5-HIAA” value (brain 5-HIAA; [9]) was “elevated”. For the same molecule, the “exogenously administered 5-HTP converted to 5-HT during transport over the intestinal wall” value [2] was “more than 50%”, the oral bioavailability ([3]; 5-HTP (Gijsman et al, 2002)) was “modest” and the “T1/2 (elimination half-life)” value ([3]; 5-HTP in humans, oral) was ~2 h. For the same molecule, the TMax ([3]; 5-HTP in humans, oral) was ~1 h, the T1/2 ([3]; immediate-release oral 5-HTP) was “about 2 hours” and the TMax ([3]; immediate-release oral 5-HTP) was 1 to 2 h.
In the case of `NC(CO)C(=O)NNCc1ccc(O)c(O)c1O` (centres unmarked) [benserazide], the “toxicity of chronic PDI treatment without levodopa” value [4] is listed as “significant toxic effects” and the “potency as inhibitor of AAAD in the peripheral organs relative to carbidopa” value [5] is listed as 10 fold.
For `C[C@@](Cc1ccc(O)c(O)c1)(NN)C(=O)O` [carbidopa], the “enhancing 5-HTP bioavailability and pharmacodynamic (brain 5-HT) effects” value ([1]; 5-HTP:carbidopa ratios of 20:1 to 100:1) was “effective”, the “effect on plasma 5-HTP” value [1, 10] was “no effects” and the “augmentation of the 5-HTP plasma elevation induced by 5-HTP” value [1] was “manifold and dose-dependently augmented”. The “augmentation of the 5-HTP plasma elevation induced by 5-HTP” value ([1]; listed as Carbidopa) was “dose-dependently augmented”, the “effect on brain 5-HT” value (brain 5-HT; [10]) was “no effects” and the “augmentation of the brain 5-HT tissue elevation induced by 5-HTP” value (brain 5-HT) was “manifold and dose-dependently augmented”. The “augmentation of the brain 5-HT tissue elevation induced by 5-HTP” value (brain 5-HT; listed as Carbidopa) was “dose-dependently augmented”, the “toxicity of chronic PDI treatment without levodopa” value [4] was “significant toxic effects” and the “effect on brain 5-HIAA” value (brain 5-HIAA; [10]) was “no effects”. The “augmentation of the brain 5-HIAA tissue elevation induced by 5-HTP” value (brain 5-HIAA) was “manifold and dose-dependently augmented”, the “augmentation of the brain 5-HIAA tissue elevation induced by 5-HTP” value (brain 5-HIAA; listed as Carbidopa) was “dose-dependently augmented” and the “average carbidopa plasma levels” value [6] was > 25 ng/mL. For the same molecule, the plasma carbidopa levels ([7]; carbidopa 10 mg/kg/day, the highest dose, limit of detection 2 ng/ml) was < 2 ng/mL, the “carbidopa peak in HPLC of plasma extract (FIG. 4D)” value ([7]; mouse treated with 10 mg/kg/day carbidopa) was “No carbidopa peak visible” and the “plasma exposure levels lower than usual systemically active levels” value ([7]; relative to 25 ng/ml) was “at least 12 times”. For the same molecule, the “usual systemically active plasma levels” value ([8]; Verhagen et al, 2015, Yeh et al, 1989) was 25 ng/mL, the “average plasma levels of carbidopa at maintenance doses” value [8, 11] was ≥ 25 ng/mL and the “range of average plasma levels of carbidopa at maintenance doses” value [8, 11] was 25 to 150 ng/mL.
